# Assays:
# [1] = design: method as in PMID 25283090; conditions: in vivo studies; cited from earlier work
# Caco-2 cells [2] = tested on: Caco-2 cells
# Caco-2 cells [3] = conditions: cited from earlier work
# [4] = cited from earlier work
# [5] = tested on: colon-derived human cells (NCM460 and HT-29MTX); conditions: cited from earlier work
# [6] = cited from earlier work; remark: listed apart in the source
structure (smiles),measurement,setting,value
"[Cl][Hg][Cl] [Hg, mercuric chloride]",absorption in vivo,[1],< 15%
same,decrease in the permeability as measured by Papp,Caco-2 cells [2],8.2%
same,decrease of Papp values,Caco-2 cells [2],7.9%
same,cell retention,Caco-2 cells [3],49–69%
same,cellular accumulation,Caco-2 cells [3],21–51%
same,transport to the basal compartment,Caco-2 cells [3],3–14%
same,transport to the basolateral side,Caco-2 cells [3],9–20%
"CC(=O)[O-].CC(=O)[O-].[Cd+2] [Cd, cadmium acetate]",decrease in the permeability as measured by Papp,Caco-2 cells [2],6.3%
same,decrease of Papp values,Caco-2 cells [2],6.3%
same,Cd accumulated in the Caco-2 cells,Caco-2 cells [3]; Caco-2,6-12%
same,lag time during which transport into the basolateral compartment was undetectable,Caco-2 cells [3],about 60 min
same,reduction of ML in the basolateral chamber,Caco-2 cells [3],90%
"O=S(=O)(O)CC(S)CS (stereo not shown) [DMPS, 2,3-dimercapto-1-propanesulfonic acid]",Properties: water solubility,[4],C3H8O3S3 M.wt; 188.289g/mol Water soluble
[CH3][Hg] [CH3Hg],decrease in the cellular accumulation,Caco-2 cells [3],up to 55%
"O=[As]O[As]=O (stereo not shown) [As, arsenic oxide (As III)]",decrease in the permeability as measured by Papp,Caco-2 cells [2],7.5%
same,decrease of Papp values,Caco-2 cells [2],7.5%
same,decrease of Papp values,[5],63%
same,Papp,"Caco-2 cells [3]; at 2 h, concentration 67 μM",4.6 ± 0.3 × 10^–6 cm/s
[Cl][Cd][Cl] [CdCl2],Cd taken up (retained in the cells and transferred through cells) by Caco-2 cells,Caco-2 cells [3]; Caco-2,25%
"CC(=O)[O-].CC(=O)[O-].[Pb+2] [Pb, lead acetate]",absolute bioavailability,[6]; estimated from Pb concentration in blood,2.7%
same,fish meal Pb found in kidney,[6]; kidney,1.4%
same,fish meal Pb found in liver,[6]; liver,0.9%
same,decrease in the permeability as measured by Papp,Caco-2 cells [2],7.9%
same,decrease of Papp values,Caco-2 cells [2],8.2%
same,Pb absorbed (associated and transported by Caco-2 cells),Caco-2 cells [3]; Caco-2,30%
same,Pb moved through the single layer,Caco-2 cells [3],3%
same,Pb retained by the cells,Caco-2 cells [3],approximately 27%
same,reduction of ML in the basolateral chamber,Caco-2 cells [3],50%
